Values of other authors, collected in US20050013939A1, “Boron-based wood preservatives and treatment of wood with boron-based preservatives” (priority 2001, published 2005).

Assays:
Insect = details: boric acid equivalents typically required in wood
fungal decay = details: boric acid equivalents typically required in wood

In the case of `OB(O)O` [boric acid], the “% wt/wt BAE required, Insect protection” value (Insect) is listed as 0.25 % wt/wt and the “% wt/wt BAE required, Fungicidal protection” value (fungal decay) is listed as 0.75 % wt/wt.
